Patent US20050002947A1, “In vitro bioassay employing laboratory-cultured larvae of strongyloides stercoralis” (University of the West Indies, priority 2003, published 2005)

Assays:
S. stercoralis larvae [1] = assay: Dye exclusion test using eosin to tell live from killed larvae; assay type: cell-based; details: for Percentage of S. stercoralis larvae stained using eosin in vitro: n~100
Description: Dye exclusion tests have been used successfully to indicate viability in parasitic platyhelminths, and similar testing can be applied to S. stercoralis larvae. Use of 0.01% v/v eosin in LNS (ELNS) in a dye exclusion test indicated death of larvae in less than 10 minutes, and 0.01-0.03% ELNS had no effect on healthy individuals. The larvae typically survive for more than 100 hours in ELNS. Accordingly, LNS is a preferred medium in which to maintain larvae harvested from multiplication in coproculture and ELNS is a preferred medium for evaluating the effects of physiologically active materials, such as candidate anthelmintic materials, on the larvae. However, the skilled practitioner will recognize that any medium in which the larvae can be maintained for a convenient period of time, and any appropriate vital staining dye, can be used in the method of the invention.
The results of a comparative test to establish the ability of a dye exclusion procedure using eosin to discriminate between live and killed larvae are presented in Table 1 below. FIG. 1 is a photomicrograph of a microscopic inspection field showing a number of larvae of S. stercoralis after exposure to an anthelmintic agent.

S. stercoralis larvae [2] = assay: Larval tolerance to methanol (solvent); assay type: cell-based, Strongyloides stercoralis; details: aqueous solutions containing methanol; cumulative percentage mortality
Description: Active constituents of plants are typically extracted in organic solvents such as methanol. […] Studies of methanol toxicity for S. stercoralis indicate that a methanol concentration exceeding 5 μg/100 mL LNS (>50 times that detected in plant extracts using NMR analyses) is required to exert any significant effect on larval mortality.

S. stercoralis larvae [3] = assay: Larval tolerance to emulsifiers; assay type: cell-based
From the text: Triton® X-100 (octylphenoxy polyethoxyethanol) is recommended for use as an emulsifier, where necessary. A concentration of 1-4% in 0.01% ELNS had no effect on larval mobility or mortality.
Other suitable surfactants for dispersing plant extracts can be developed by routine testing according to the described procedures.

## O=C1OC2(c3ccccc31)c1cc(Br)c(O)c(Br)c1Oc1c2cc(Br)c(O)c1Br [eosin]
S. stercoralis larvae [1]; 0.01% v/v eosin in LNS
  Time in which the dye exclusion test indicated death of larvae: less than 10 minutes
S. stercoralis larvae [1]; heat killed larvae (60° C./30 min), eosin 0.01% (w/v), 0 min
  Percentage of S. stercoralis larvae stained using eosin in vitro: 0%
S. stercoralis larvae [1]; heat killed larvae (60° C./30 min), eosin 0.01% (w/v), 10 min
  Percentage of S. stercoralis larvae stained using eosin in vitro: 100%
S. stercoralis larvae [1]; heat killed larvae (60° C./30 min), eosin 0.03% (w/v), 0 min
  Percentage of S. stercoralis larvae stained using eosin in vitro: 0%
S. stercoralis larvae [1]; heat killed larvae (60° C./30 min), eosin 0.03% (w/v), 10 min
  Percentage of S. stercoralis larvae stained using eosin in vitro: 100%
S. stercoralis larvae [1]; living larvae, eosin 0.01% (w/v), 0 min
  Percentage of S. stercoralis larvae stained using eosin in vitro: 0%
S. stercoralis larvae [1]; living larvae, eosin 0.01% (w/v), 10 min
  Percentage of S. stercoralis larvae stained using eosin in vitro: 1%
S. stercoralis larvae [1]; living larvae, eosin 0.01% (w/v), 20 min
  Percentage of S. stercoralis larvae stained using eosin in vitro: 1%
S. stercoralis larvae [1]; living larvae, eosin 0.01% (w/v), 30 min
  Percentage of S. stercoralis larvae stained using eosin in vitro: 2%
S. stercoralis larvae [1]; living larvae, eosin 0.01% (w/v), 40 min
  Percentage of S. stercoralis larvae stained using eosin in vitro: 2%
S. stercoralis larvae [1]; living larvae, eosin 0.01% (w/v), 50 min
  Percentage of S. stercoralis larvae stained using eosin in vitro: 2%
S. stercoralis larvae [1]; living larvae, eosin 0.01% (w/v), 60 min
  Percentage of S. stercoralis larvae stained using eosin in vitro: 2%
S. stercoralis larvae [1]; living larvae, eosin 0.01% (w/v), column headed only "(min)", after 60
  Percentage of S. stercoralis larvae stained using eosin in vitro: 2%
S. stercoralis larvae [1]; living larvae, eosin 0.03% (w/v), 0 min
  Percentage of S. stercoralis larvae stained using eosin in vitro: 0%
S. stercoralis larvae [1]; living larvae, eosin 0.03% (w/v), 10 min
  Percentage of S. stercoralis larvae stained using eosin in vitro: 1%
S. stercoralis larvae [1]; living larvae, eosin 0.03% (w/v), 20 min
  Percentage of S. stercoralis larvae stained using eosin in vitro: 1%
S. stercoralis larvae [1]; living larvae, eosin 0.03% (w/v), 30 min
  Percentage of S. stercoralis larvae stained using eosin in vitro: 2%
S. stercoralis larvae [1]; living larvae, eosin 0.03% (w/v), 40 min
  Percentage of S. stercoralis larvae stained using eosin in vitro: 2%
S. stercoralis larvae [1]; living larvae, eosin 0.03% (w/v), 50 min
  Percentage of S. stercoralis larvae stained using eosin in vitro: 2%
S. stercoralis larvae [1]; living larvae, eosin 0.03% (w/v), 60 min
  Percentage of S. stercoralis larvae stained using eosin in vitro: 2%
S. stercoralis larvae [1]; living larvae, eosin 0.03% (w/v), column headed only "(min)", after 60
  Percentage of S. stercoralis larvae stained using eosin in vitro: 3%

## CO [methanol]
S. stercoralis larvae [2]
  Methanol concentration required to exert any significant effect on larval mortality: exceeding 5 μg/100 mL LNS

## Tween® 20
S. stercoralis larvae [3]; 0.1-0.4% in 0.1% ELNS
  Toxicity to S. stercoralis larvae: toxic

## octylphenoxy polyethoxyethanol [Triton® X-100]
S. stercoralis larvae [3]; 1-4% in 0.01% ELNS
  Effect on larval mobility: no effect
  Effect on larval mortality: no effect
